The target of the test is T1, calpain-I isolated from human erythrocytes (Homo sapiens, UniProt P07384).
T1 construct: calpain-I—isolated from human erythrocytes (Calbiochem #208713); purchased Calbiochem 208713; host or cells: human erythrocytes (native tissue isolate)
T1 sequence (P07384 1-714): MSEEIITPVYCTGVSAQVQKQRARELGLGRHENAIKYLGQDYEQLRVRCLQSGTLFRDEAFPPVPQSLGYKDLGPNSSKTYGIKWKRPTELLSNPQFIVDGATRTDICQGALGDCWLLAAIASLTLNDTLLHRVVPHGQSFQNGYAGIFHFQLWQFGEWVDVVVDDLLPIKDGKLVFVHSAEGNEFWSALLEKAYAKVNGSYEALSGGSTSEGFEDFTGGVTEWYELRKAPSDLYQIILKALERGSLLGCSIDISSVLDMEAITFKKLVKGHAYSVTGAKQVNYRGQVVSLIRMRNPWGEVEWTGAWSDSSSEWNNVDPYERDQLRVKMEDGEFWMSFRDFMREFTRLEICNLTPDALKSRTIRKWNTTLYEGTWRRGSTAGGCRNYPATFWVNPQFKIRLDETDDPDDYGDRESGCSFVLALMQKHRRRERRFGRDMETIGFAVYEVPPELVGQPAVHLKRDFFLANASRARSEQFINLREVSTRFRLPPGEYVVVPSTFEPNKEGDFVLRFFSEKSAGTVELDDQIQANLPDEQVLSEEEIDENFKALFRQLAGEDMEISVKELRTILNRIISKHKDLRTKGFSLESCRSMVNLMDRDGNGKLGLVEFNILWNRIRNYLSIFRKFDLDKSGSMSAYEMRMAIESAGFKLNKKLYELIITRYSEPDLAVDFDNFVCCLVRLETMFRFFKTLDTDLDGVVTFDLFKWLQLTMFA
T1 sequence (P04632 1-268 partner): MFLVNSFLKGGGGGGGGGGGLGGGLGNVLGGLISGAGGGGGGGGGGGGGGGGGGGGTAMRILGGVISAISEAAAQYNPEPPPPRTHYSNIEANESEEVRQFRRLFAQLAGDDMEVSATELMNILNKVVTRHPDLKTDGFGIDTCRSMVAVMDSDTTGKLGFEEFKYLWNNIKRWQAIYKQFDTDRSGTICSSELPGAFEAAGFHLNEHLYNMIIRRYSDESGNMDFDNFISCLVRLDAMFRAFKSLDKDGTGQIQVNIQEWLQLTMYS
Description: Calpain I kinetic fluorescence enzyme inhibition assay. Type of test: biochemical. Particulars: apparent Ki from IC50 by Cheng-Prussoff. On the procedure:
Testing for blockade of the corresponding enzymic activities was carried out by means of kinetic fluorescence assays (excitation 390 nm, emission 460 nm).
Apparent Ki values were calculated from the experimentally determined IC50 values by the Cheng-Prussoff relation assuming a reversible competitive enzyme inhibition.
20 nM calpain-I—isolated from human erythrocytes (Calbiochem #208713), 100 μM Suc-Leu-Tyr-AMC (Bachem #I-1355) as substrate in buffer with 62 mM imidazole, 0.3 mM CaCl2, 0.10% CHAPS, 0.05% BSA, 1 mM DTT at pH 7.3 and room temperature.

SMILES strings stand for the structures. Some results are limits rather than exact numbers.

As for `NC(=O)C(=O)C(Cc1ccccc1)NC(=O)c1cccnc1-n1ccc(CN2CCC(c3ccccc3)C2)n1` (stereo not drawn) [Example 29, N-(4-Amino-3,4-dioxo-1-phenylbutan-2-yl)-2-(3-((3-phenylpyrrolidin-1-yl)methyl)-1H-pyrazol-1-yl)nicotinamide], the Ki was below 250 nM.

Turning to `NC(=O)C(=O)C(Cc1ccccc1)NC(=O)c1cccnc1-n1ccc(CN2Cc3ccccc3C2=O)n1` (stereo not drawn) [Example 36, N-(4-Amino-3,4-dioxo-1-phenylbutan-2-yl)-2-(3-((1-oxoisoindolin-2-yl)methyl)-1H-pyrazol-1-yl)nicotinamide], the Ki was below 250 nM.

In the case of `NC(=O)C(=O)C(Cc1ccccc1)NC(=O)c1cccnc1-n1ccc(CN2CCOCC2)n1` (stereo not drawn) [Example 1, N-(4-Amino-3,4-dioxo-1-phenylbutan-2-yl)-2-(3-(morpholinomethyl)-1H-pyrazol-1-yl)nicotinamide], the Ki is below 250 nM.

(Values after patent US9150545B2, “Carboxamide compounds and their use as calpain inhibitors V” (ABBVIE DEUTSCHLAND GMBH & CO. KG, priority 2012, dated 2015).)
